# Results taken from patent publication US9290459B1, “Substituted bicyclic dihydropyrimidinones and their use as inhibitors of neutrophil elastase activity” (Boehringer Ingelheim International GmbH, priority 2013, dated 2016).
# pEC50, pIC50: −log10 of the molar value. Several values for one entry are separate records, joined by “and”; a condition that tells them apart may be missing. Equal entries are not always repeated.
# Legend:
# [1] = test system: human hepatocytes; assay: Metabolic stability with human hepatocytes; format: in vitro ADME; conditions: for CL (predicted human hepatic in vivo blood clearance): human hepatocyte suspension, 1 μM test compound, scaled with well stirred model
# Description: Assay for the Determination of Metabolic Stability with Human Hepatocytes The metabolic degradation of the test compound is assayed in a human hepatocyte suspension. Human hepatocytes (typically cryopreserved) are incubated in an appropriate buffer system (e.g. […] Samples are transferred into acetonitrile and pelleted by centrifugation (5 min) The supernatant is transferred to a new 96-deepwell plate, evaporated under nitrogen and resuspended. The decline of parent compound is analyzed by LC-MS/MS.
# [2] = Metabolic stability with human liver microsomes; format: in vitro ADME; conditions: for half-life at 1 μM: pH 7.6; for t1/2 INVITRO: pooled human liver microsomes, 1 mg/ml protein, 1 μM test compound, 37° C., NADPH
# [3] = target: cytochrome P450 2C19 (Homo sapiens (Human), UniProt P33261); assay: Cytochrome P450 2C19 inhibition; format: in vitro ADME; conditions: human liver microsomes; for pIC50: (S)-Mephenytoin hydroxylation, read-out: CYP2C19 IC50
# [4] = Aqueous solubility; format: physicochemical; conditions: McIlvaine buffer pH 6.8, 2.5% DMSO, 24 h shaking; for solubility at 24 h: McIlvaine buffer pH 6.8 with 2.5% DMSO, pH 6.8, aqueous buffer, kinetic from dmso stock
# Description: Assay for Determination of Aqueous Solubility […] After 24 h of shaking, the solutions or suspensions are filtered and analyzed by LC-UV. The amount dissolved in buffer is compared to the amount dissolved in the acetonitrile/water (1/1) solution.
# [5] = target: cytochrome P450 2C9 (Homo sapiens (Human), UniProt P11712); assay: Cytochrome P450 2C9 inhibition; format: in vitro ADME; conditions: human liver microsomes; for pIC50: Diclofenac hydroxylation, read-out: CYP2C9 IC50
# [6] = target: cytochrome P450 2C8 (Homo sapiens (Human), UniProt P10632); assay: Cytochrome P450 2C8 inhibition; format: in vitro ADME; conditions: human liver microsomes; for pIC50: Amodiaquine deethylation, read-out: CYP2C8 IC50
# [7] = Drug transport across human Caco-2 cells; format: in vitro ADME; conditions: human; for Papp A→B at 10 µM / Papp B→A at 10 µM: Caco-2, pH 7.2, Caco-2 monolayers, pH 7.2, 37° C.; for Papp A→B at 10 µM: apical-to-basal, read-out: PEAB; for Papp B→A at 10 µM: basal-to-apical, read-out: PEBA; for efflux ratio at 10 μM: Caco-2, pH 7.2, PEBA/PEAB, Caco-2
# Description: (§1) Assay for Determination of Drug Transport Across Human Caco-2 Cells The assay provides information on the potential of a compound to pass the cell membrane, on the extent of oral absorption as well as on whether the compound is actively transported by uptake and/or efflux transporters. […] The compounds are assigned to permeability/absorption classes by comparison of the AB permeabilities with the AB permeabilities of reference compounds with known in vitro permeability and oral absorption in the human. Identical or similar permeabilities in both transport directions indicate passive permeation, vectorial permeability points to additional active transport mechanisms. […] Active transport is concentration-dependently saturable. Caco-2 cells (1-2*10^5 cells/cm^2 area) are seeded on filter inserts (Costar transwell polycarbonate or PET filters, 0.4 nm pore size) and cultured (DMEM) for 10 to 25 days. […] The transport solution (TL) is applied ici to the apical or basolateral donor side for measuring A-B or B-A permeability (3 filter replicates), respectively. The receiver side contains HTP-4 buffer supplemented with 2% BSA. […] Sampled receiver volumes are replaced with fresh receiver solution.
# [8] = test system: Caco-2 cells; assay: Drug transport across human Caco-2 cells; format: in vitro ADME; conditions: for AB permeability (PEAB): Caco-2, pH 7.2, 37° C., compared to prior-art cyclic amide derivative; for PEAB / PEBA: Caco-2 monolayers, pH 7.2, 37° C.; for PEAB: apical-to-basal; for PEBA: basal-to-apical; for Efflux ratio: PEBA/PEAB, Caco-2
# Description: as §1
# [9] = target: neutrophil elastase in human plasma (Homo sapiens (Human), UniProt P08246); assay: Neutrophil elastase inhibitory activity in human plasma (zymosan-stimulated blood); format: biochemical; conditions: neutrophil elastase enriched human plasma from zymosan-stimulated blood; read-out: EC50
# Description: Assay for the Determination of Neutrophil Elastase Inhibitory Activity in Human Plasma
# Citrated blood from human healthy donors is mixed with zymosan suspension and incubated at room temperature. This leads to the stimulation of neutrophils and the release of neutrophil elastase into the plasma. The stimulated blood is centrifuged to generate the neutrophil elastase enriched plasma.
# Various concentrations of the neutrophil elastase inhibitor are incubated with plasma. […] A dose response curve is generated to calculate the EC50 of the inhibitor.
# [10] = target: Human neutrophil elastase (Homo sapiens (Human), UniProt P08246); assay: Human Neutrophil Elastase Assay; format: biochemical; conditions: human neutrophil elastase, substrate MeOSuc-Ala-Ala-Pro-Val-AMC 250 μM, pH 7.5; read-out: IC50
# [11] = compared to example 8A disclosed in WO 2005/0828683
# Sequence of neutrophil elastase in human plasma (P08246 30-247): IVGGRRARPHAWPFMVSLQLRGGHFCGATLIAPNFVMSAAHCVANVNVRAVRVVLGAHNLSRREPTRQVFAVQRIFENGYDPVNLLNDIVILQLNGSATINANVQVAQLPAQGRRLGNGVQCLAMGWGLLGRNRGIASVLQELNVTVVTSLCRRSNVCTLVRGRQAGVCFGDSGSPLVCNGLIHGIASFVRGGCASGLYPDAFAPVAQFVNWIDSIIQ
# Sequence of Human neutrophil elastase (P08246 30-247): as above
# Sequence of cytochrome P450 2C8 (P10632 whole entry): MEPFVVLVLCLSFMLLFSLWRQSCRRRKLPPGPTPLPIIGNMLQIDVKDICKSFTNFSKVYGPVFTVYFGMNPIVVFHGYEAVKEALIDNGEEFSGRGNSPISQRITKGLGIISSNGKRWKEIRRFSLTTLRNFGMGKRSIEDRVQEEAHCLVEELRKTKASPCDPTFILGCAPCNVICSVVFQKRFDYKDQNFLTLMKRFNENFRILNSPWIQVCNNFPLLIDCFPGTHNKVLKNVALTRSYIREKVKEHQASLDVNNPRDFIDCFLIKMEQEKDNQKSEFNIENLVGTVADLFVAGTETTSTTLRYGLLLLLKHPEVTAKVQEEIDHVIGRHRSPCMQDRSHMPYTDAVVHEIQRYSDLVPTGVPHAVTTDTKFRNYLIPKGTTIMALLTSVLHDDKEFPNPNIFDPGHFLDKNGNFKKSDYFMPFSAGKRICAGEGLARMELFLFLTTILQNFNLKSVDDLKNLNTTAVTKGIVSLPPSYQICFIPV
# Sequence of cytochrome P450 2C19 (P33261 whole entry): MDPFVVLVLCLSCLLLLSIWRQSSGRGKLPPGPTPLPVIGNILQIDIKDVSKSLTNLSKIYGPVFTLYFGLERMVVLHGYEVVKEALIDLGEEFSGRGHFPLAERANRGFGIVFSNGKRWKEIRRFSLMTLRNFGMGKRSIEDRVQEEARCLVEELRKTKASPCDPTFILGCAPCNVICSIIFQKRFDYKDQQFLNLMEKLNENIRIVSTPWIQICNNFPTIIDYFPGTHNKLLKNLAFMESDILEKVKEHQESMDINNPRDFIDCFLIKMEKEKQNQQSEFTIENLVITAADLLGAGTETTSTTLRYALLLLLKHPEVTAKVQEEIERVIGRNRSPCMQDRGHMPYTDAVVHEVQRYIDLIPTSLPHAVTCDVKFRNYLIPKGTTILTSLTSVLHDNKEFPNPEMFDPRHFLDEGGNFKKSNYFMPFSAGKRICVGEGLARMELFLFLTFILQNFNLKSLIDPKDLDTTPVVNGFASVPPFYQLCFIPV
# Sequence of cytochrome P450 2C9 (P11712 whole entry): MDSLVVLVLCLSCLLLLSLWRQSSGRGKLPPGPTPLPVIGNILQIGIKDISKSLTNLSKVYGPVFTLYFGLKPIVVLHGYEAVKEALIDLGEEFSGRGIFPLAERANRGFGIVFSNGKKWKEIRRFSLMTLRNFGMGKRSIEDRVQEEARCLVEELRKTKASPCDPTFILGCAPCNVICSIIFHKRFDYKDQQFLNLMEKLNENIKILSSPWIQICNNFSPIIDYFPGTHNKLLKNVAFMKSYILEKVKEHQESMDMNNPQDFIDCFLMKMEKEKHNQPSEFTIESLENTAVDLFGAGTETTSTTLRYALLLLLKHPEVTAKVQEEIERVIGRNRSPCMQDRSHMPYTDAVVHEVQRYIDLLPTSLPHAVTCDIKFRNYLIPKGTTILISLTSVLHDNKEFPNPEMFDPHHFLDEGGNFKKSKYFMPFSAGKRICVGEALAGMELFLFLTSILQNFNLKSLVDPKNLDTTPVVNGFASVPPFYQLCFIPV
Compound,CL (predicted human hepatic in vivo blood clearance) [1] [mL/min/kg],"half-life at 1 μM ([2]; human, microsomes) [h]",solubility at 24 h [4] [µg/mL],Papp A→B at 10 µM [7] [×10⁻⁶ cm/s],Papp B→A at 10 µM [7] [×10⁻⁶ cm/s],t1/2 INVITRO [2] [h],Aqueous solubility [4],PEAB [8] [×10⁻⁶ cm/s],PEBA [8],Efflux ratio [8],pEC50 [9],pIC50 [10],pIC50 [3],pIC50 [5],pIC50 [6],efflux ratio at 10 μM [7],further results
"N#Cc1ccc([C@H]2NC(=O)N(c3cccc(C(F)(F)F)c3)C3=C2C(=O)CC3)cc1 [Example 1A, (R)-4-(2,5-Dioxo-1-(3-(trifluoromethyl)phenyl)-2,3,4,5,6,7-hexahydro-1H-cyclopenta[d]pyrimidin-4-yl)benzonitrile]",6,> 2.17,74,51,76.4,,,,,,,,,,,,"predicted human hepatic in vivo blood clearance (CL) ([1]; human hepatocytes, compared to example 8A disclosed in WO 2005/0828683): reduced clearance; half-life (t1/2 INVITRO), metabolic stability ([2]; human, microsomes): improved half life; CYP2C19 inhibition ([3]; compared to example 8A in WO 2005/0828683): reduced CYP2C19 inhibition; CYP2C9 inhibition [5, 11]: reduced CYP2C9 inhibition; CYP2C8 inhibition [6, 11]: reduced CYP2C8 inhibition; AB permeability (PEAB) [8]: improved AB permeability"
N#Cc1ccc(C2C3=C(CCC3=O)N(c3cccc(C(F)(F)F)c3)C(=O)N2C(=O)NCCCO)cc1 (stereo not shown) [Example 7.3],7,,,,,>2.17,72 µg/mL,9.49,67.1 ×10⁻⁶ cm/s,7.1,,,,,,,
"CS(=O)(=O)N1C(=O)N(c2cccc(C(F)(F)F)c2)C2=C(C(=O)CC2)[C@H]1c1ccc(C#N)cc1 [Example 9A, (R)-4-(3-(Methylsulfonyl)-2,5-dioxo-1-(3-(trifluoromethyl)phenyl)-2,3,4,5,6,7-hexahydro-1H-cyclopenta[d]pyrimidin-4-yl)benzonitrile]",0,> 2.17,,43.9,73,,,,,,8.70,8.52,< 4.30,< 4.30,< 4.30,1.7,
"CS(=O)(=O)c1cc(C#N)ccc1[C@H]1NC(=O)N(c2cccc(C(F)(F)F)c2)C2=C1C(=O)CC2 [Example 10A, (S)-4-(2,5-Dioxo-1-(3-(trifluoromethyl)phenyl)-2,3,4,5,6,7-hexahydro-1H-cyclopenta[d]pyrimidin-4-yl)-3-(methylsulfonyl)benzonitrile]",0,> 2.17,84.5,4.93,57.4,,,,,,9.00,8.59,4.41,< 4.30,< 4.30,14.5,AB permeability (PEAB) [8]: improved AB permeability
C[C@H](O)CNC(=O)N1C(=O)N(c2cccc(C(F)(F)F)c2)C2=C(C(=O)CC2)C1c1ccc(C#N)cc1 (stereo partly shown) [Example 41.1],2,,,,,>2.17,97 µg/mL and 73 µg/mL,,72.9 ×10⁻⁶ cm/s and 90.3 ×10⁻⁶ cm/s,8.9 and 4.8,,,,,,,
C[C@H](CO)NC(=O)N1C(=O)N(c2cccc(C(F)(F)F)c2)C2=C(C(=O)CC2)C1c1ccc(C#N)cc1 (stereo partly shown) [Example 41.4],5,,,,,>2.17,92 µg/mL,9.41,81.5 ×10⁻⁶ cm/s,8.7,,,,,,,
CC(C)(O)CCNC(=O)N1C(=O)N(c2cccc(C(F)(F)F)c2)C2=C(C(=O)CC2)C1c1ccc(C#N)cc1 (stereo not shown) [Example 41.17],3,,,,,>2.17,54 µg/mL,23.4,80.7 ×10⁻⁶ cm/s,3.5,,,,,,,
"CC(C)(O)CNC(=O)N1C(=O)N(c2cccc(C(F)(F)F)c2)C2=C(C(=O)CC2)[C@H]1c1ccc(C#N)cc1 [Example 41A, (R)-4-(4-Cyanophenyl)-N-(2-hydroxy-2-methylpropyl)-2,5-dioxo-1-(3-(trifluoro-methyl)phenyl)-4,5,6,7-tetrahydro-1H-cyclopenta[d]pyrimidine-3(2H)-carboxamide]",0,> 2.17,79,11.1,75.1,,,,,,> 9.00,> 9.00,< 4.30,< 4.30,< 4.30,6.8,
CNC(=O)N1C(=O)N(c2cccc(C(F)(F)F)c2)C2=C(C(=O)CC2)[C@H]1c1ccc(C#N)cc1S(C)(=O)=O [Example 47.1],0,> 2.17,83,8.13,65.1,,,,,,> 9.00,> 9.00,< 4.30,< 4.30,< 4.30,8,
CCNC(=O)N1C(=O)N(c2cccc(C(F)(F)F)c2)C2=C(C(=O)CC2)[C@H]1c1ccc(C#N)cc1S(C)(=O)=O [Example 47.2],1,> 2.17,45,12.8,84.5,,,,,,> 9.00,> 9.00,< 4.30,< 4.30,< 4.30,,
